Consider 30 molecules from US12686668B2, “Leukotriene synthesis inhibitors” (Naegis Pharmaceuticals Inc., priority 2019, dated 2026).

Test [1] concerns LTC4 production in MC/9 cells. As to the kind of experiment: MC/9 HPLC assay, inhibition of LTC4 production. Type of test: cell-based. Particulars: Mus musculus; for inhibition at 1 µM: MC9, Table 2 column 3, no concentration in head (1 μM according to b732), read-out: % Inhibition LTC4; for inhibition at 3 µM: MC9, 3 μM, A23187 stimulated. As for the experimental part: (§1) Cultured MC/9 cells (3×10^6 cells) in 1 mL HBSS were pre-incubated with a series of concentrations of compound solubilized in DMSO for 30 minutes. Production of leukotrienes were stimulated with the addition of 1 μM calcium ionophore (A23187), diluted from a 4 mM DMSO stock in HBSS, and incubated at room temperature for 20 minutes. The reaction was stopped with the addition of 500 μL of methanol containing 20 ng/mL prostaglandin B2 as an internal standard. Samples were collected and stored at −20° C. at least 2 hr or overnight before centrifuged at 13,000 rpm for 15 minutes and loaded onto C18 SEP-PAK columns (Canadian Lifesciences IS12000) for solid phase extraction. The leukotrienes were analyzed by HPLC using an ACE C18 column (4.5 mm×150 mm, 5 m) eluted with acetonitrile/methanol/water mixture with H3PO4, pH 3.5 (37:26:37) with a flow rate of 1.8 mL/min. The amount of LTB4 (Cayman Chemical, 20110) and LTC4 (Cayman Chemical, 20210) were calculated based on reference standards and the level of inhibition of LTB4 production induced by the test compounds was calculated relative to control samples. The results are provided in Table 2, where Compound No. refers to the compounds identified in Table 1.

The test system of test [2] is LTB4 production in MC/9 cells. As to the kind of experiment: MC/9 HPLC assay, inhibition of LTB4 production. The test is classed as cell-based. Particulars: Mus musculus, MC9, Table 2 column 4, no concentration in head (1 μM according to b732), read-out: % Inhibition LTB4. As for the experimental part: as §1
Test [3] concerns the target T1, recombinant human leukotriene A4 hydrolase enzyme (Homo sapiens, UniProt P09960).
T1 construct: purchased Cayman Chemical 10007817
T1 sequence (P09960 1-611): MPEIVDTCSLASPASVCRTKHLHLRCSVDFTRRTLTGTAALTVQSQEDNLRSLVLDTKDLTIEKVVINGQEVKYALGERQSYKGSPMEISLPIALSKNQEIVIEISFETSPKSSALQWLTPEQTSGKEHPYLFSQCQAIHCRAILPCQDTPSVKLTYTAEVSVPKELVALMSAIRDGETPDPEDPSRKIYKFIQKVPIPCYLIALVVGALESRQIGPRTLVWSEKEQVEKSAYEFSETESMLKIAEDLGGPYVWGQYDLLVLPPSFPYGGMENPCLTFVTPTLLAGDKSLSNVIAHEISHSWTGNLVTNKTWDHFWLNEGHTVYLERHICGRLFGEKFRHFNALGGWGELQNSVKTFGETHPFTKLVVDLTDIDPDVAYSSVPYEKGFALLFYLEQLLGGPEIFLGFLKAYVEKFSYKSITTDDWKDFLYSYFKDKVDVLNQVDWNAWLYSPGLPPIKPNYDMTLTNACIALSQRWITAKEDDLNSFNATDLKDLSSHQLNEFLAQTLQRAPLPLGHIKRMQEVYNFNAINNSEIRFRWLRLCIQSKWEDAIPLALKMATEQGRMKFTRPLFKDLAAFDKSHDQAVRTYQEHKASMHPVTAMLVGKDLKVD
As to the kind of experiment: Amino-peptidase assay, alanine-4-nitroanalide. Type of test: biochemical. Particulars: negative values = augmented peptidase activity, read-out: % Inhibition aminopeptidase-Alanine-4-nitroanalide activity of LTA4H (3 μM). As for the experimental part: A series of compound concentrations were pre-incubated in the absence of light with 0.5 μg of recombinant human leukotriene A4 hydrolase enzyme (Cayman Chemical 10007817) in 50 μL assay buffer (50 mM Tris-HCl, 100 mM KCl). The reaction was stimulated by adding 50 μL 6 mM alanine-4-nitroanilide (Sigma Aldrich A9325) in assay buffer. The amount of amino-peptidase activity was measured by determining the change in absorbance at 405 nm due to 4-nitroanaline production and comparing the rate of change to a reference standard (Sigma Aldrich 185310). Amino-peptidase activity was compared to control samples and the level of inhibition was calculated. Compounds that augment peptidase activity are represented by negative values.

The inhibition is how much of the control response was suppressed. Consider `CCC(=O)CCc1ccc(Oc2nc3ccccc3s2)c(OC)c1` [Compound 101, 1-[4-(1,3-benzothiazol-2-yloxy)-3-methoxyphenyl]pentan-3-one], for which the inhibition at 1 µM in test [1] and in test [2] was less than 10% throughout.

As to `COc1cc(CCC(C)=O)ccc1Oc1nc2ccccc2s1` [Compound 110, 4-[4-(1,3-benzothiazol-2-yloxy)-3-methoxyphenyl]butan-2-one], the inhibition at 1 µM in test [1] and in test [2] was less than 10% each time.

With `COc1cc(CCC(C)(O)C(F)(F)F)ccc1Oc1nc2ccccc2s1` (centres unmarked) [Compound 111, 4-[4-(1,3-benzothiazol-2-yloxy)-3-methoxyphenyl]-1,1,1-trifluoro-2-methylbutan-2-ol], the inhibition at 3 µM in test [1] lay within 70 to 90%. Turning to `CCC(O)(CCc1ccc(Oc2nc3ccccc3s2)c(OC2CCCC2)c1)C(F)(F)F` (centres unmarked) [Compound 116, 1-[4-(1,3-benzothiazol-2-yloxy)-3-(cyclopentyloxy)-phenyl]-3-(trifluoromethyl)-pentan-3-ol], the inhibition at 1 µM in test [1] and in test [2] was less than 10% each time.

`CCOc1cc(CCC(=O)CC)ccc1Oc1nc2ccccc2s1` [Compound 120, 1-[4-(1,3-benzothiazol-2-yloxy)-3-ethoxyphenyl]-pentan-3-one] came in with an inhibition at 3 µM in test [1] of 70 to 90%.

With `COc1cc(CCC(C)O)ccc1Oc1nc2ccccc2s1` (centres unmarked) [Compound 122, 4-[4-(1,3-benzothiazol-2-yloxy)-3-methoxyphenyl]-butan-2-ol], the inhibition at 1 µM in test [1] and in test [2] was 30 to 50% each time.

Consider `COc1cc(CCC(C)(C)O)ccc1Oc1nc2ccccc2s1` [Compound 124, 4-[4-(1,3-benzothiazol-2-yloxy)-3-methoxyphenyl]-2-methylbutan-2-ol], for which, in test [1], the inhibition at 1 µM lay in the range of 10 to 30%. On to `COc1cc(CCC(C)(C)O)ccc1Oc1nc2ccccc2o1` [Compound 126, 4-[4-(1,3-benzoxazol-2-yloxy)-3-methoxyphenyl]-2-methylbutan-2-ol], for which the inhibition at 1 µM is less than 10% in test [1] and 10 to 30% in test [2].

With `CCC(C)(O)CCc1ccc(Oc2nc3ccccc3o2)c(OC)c1` (centres unmarked) [Compound 127, 1-[4-(1,3-benzoxazol-2-yloxy)-3-methoxyphenyl]-3-methylpentan-3-ol], the inhibition at 1 µM in test [1] and in test [2] was less than 10% in each case. `CCOc1cc(CCC(O)(c2ccccc2)C(F)(F)F)ccc1Oc1nc2ccccc2s1` (centres unmarked) [Compound 130, 4-[3-ethoxy-4-(1,3-benzothiazol-2-yloxy)phenyl]-1,1,1-trifluoro-2-phenylbutan-2-ol]: the values for the inhibition at 1 µM in test [1] and in test [2] were less than 10% and 10 to 30%, respectively. For the molecule `COc1cc(CCC(=O)c2ccccc2)ccc1Oc1nc2ccccc2s1` [Compound 131, 3-[4-(1,3-benzothiazol-2-yloxy)-3-methoxyphenyl]-1-phenylpropan-1-one], the inhibition at 3 µM in test [1] lay in the range of 50 to 70%. For the molecule `COc1cc(CCC(O)(c2ccccc2)C(F)(F)F)ccc1Oc1nc2ccccc2s1` (centres unmarked) [Compound 133, 3-[4-(1,3-benzothiazol-2-yloxy)-3-methoxyphenyl]-1-(trifluoromethyl)-1-phenylpropan-1-ol], the inhibition at 1 µM in test [1] was less than 10%; in test [2], 30 to 50%. On the same counts, the results for `COc1cc(CCC(c2ccccc2)N2CCCC2)ccc1Oc1nc2ccccc2s1` (centres unmarked) [Compound 134, 2-{2-methoxyl-4-[3-phenyl-3-(pyrrolidin-1-yl)propyl]phenoxy}-1,3-benzothiazole] are 10 to 30% and 10 to 30%. Take `CCC(N)CCc1ccc(Oc2nc3ccccc3s2)c(OC)c1` (centres unmarked) [Compound 135, 1-[4-(1,3-benzothiazol-2-yloxy)-3-methoxyphenyl]pentan-3-amine]: the values for the inhibition at 1 µM in test [1] and in test [2] were 10 to 30% and 30 to 50%, respectively.

Take `CCC(CCc1ccc(Oc2nc3ccccc3s2)c(OC)c1)N1CCOCC1` (centres unmarked) [Compound 136, 4-{1-[3-methoxy-4-(1,3-benzothiazol-2-yloxy)phenyl]pentan-3-yl}morpholine]: the inhibition at 3 µM in test [1] lay within 10 to 30%. `CC(O)(CCc1ccc(Oc2nc3ccccc3s2)cc1)C(F)(F)F` (centres unmarked) [Compound 140, 4-[4-(1,3-benzothiazol-2-yloxy)phenyl]-1,1,1-trifluoro-2-methylbutan-2-ol]: the inhibition at 1 µM in test [1] and in test [2] was less than 10% in each case.

As for `CCC(C)(O)CCc1ccc(Oc2nc3ccccc3s2)cc1` (centres unmarked) [Compound 143, 1-[4-(1,3-benzothiazol-2-yloxy)phenyl]-3-methylpentan-3-ol], the figures for the inhibition at 1 µM in test [1] and in test [2] were 10 to 30% and greater than 90%, respectively. For `CC(O)(CCc1ccc(Oc2nc3ccccc3s2)cc1)c1ccccc1` (centres unmarked) [Compound 144, 4-[4-(1,3-benzothiazol-2-yloxy)phenyl]-2-phenylbutan-2-ol] the same measures were 10 to 30% and greater than 90%.

As to `CCC(=O)CCc1ccc(Oc2nc3ccccc3s2)cc1` [Compound 148, 1-[4-(1,3-benzothiazol-2-yloxy)phenyl]pentan-3-one], the inhibition at 3 µM in test [3] is less than 25%.

Regarding `CCC(O)(CCc1ccc(Oc2nc3ccccc3s2)c(Cl)c1)C(F)(F)F` (centres unmarked) [Compound 151, 1-[4-(1,3-benzothiazol-2-yloxy)-3-chlorophenyl]-3-(trifluoromethyl)pentan-3-ol], the inhibition at 1 µM in test [1] and in test [2] was 10 to 30% throughout. The molecule `CC(=O)c1ccc(Oc2nc3ccccc3s2)cc1` [Compound 159, 1-[4-(1,3-benzothiazol-2-yloxy)phenyl]ethanone] returned an inhibition at 3 µM in test [1] of 10 to 30%. Still for that read-out and setting: under `CCC(C)(O)c1ccc(Oc2nc3ccccc3s2)cc1` (centres unmarked) [Compound 161, 2-[4-(1,3-benzothiazol-2-yloxy)phenyl]butan-2-ol] stands less than 10%; under `CC(c1ccc(Oc2nc3ccccc3s2)cc1)N1CCCC1` (centres unmarked) [Compound 162, 2-{4-[1-(pyrrolidin-1-yl)ethyl]phenoxy}-1,3-benzothiazole], less than 10%. The same measure, in the same setting: under `CCNC(c1ccc(Oc2nc3ccccc3s2)cc1)C(F)(F)F` (centres unmarked) [Compound 168, 1-[4-(1,3-benzothiazol-2-yloxy)phenyl]-N-ethyl-2,2,2-trifluoroethanamine] stands less than 10%; under `Cc1nc2ccc(Oc3ccc(C(C)(O)C(F)(F)F)cc3)cc2s1` (centres unmarked) [Compound 170, 1,1,1-trifluoro-2-{4-[(2-methyl-1,3-benzothiazol-6-yl)oxy]phenyl}propan-2-ol], greater than 90%; under `Cc1nc2ccc(Oc3ccc(C(C)O)cc3)cc2s1` (centres unmarked) [Compound 171, 1-{4-[(2-methyl-1,3-benzothiazol-6-yl)oxy]phenyl}ethanol], 70 to 90%. Take `CC(O)(CCc1ccc(Oc2nc3ccccc3s2)c(Cl)c1)C(F)(F)F` (centres unmarked) [Compound 175, 4-[4-(1,3-benzothiazol-2-yloxy)-3-chlorophenyl]-1,1,1-trifluoro-2-methylbutan-2-ol]: in test [3], the inhibition at 3 µM was in the range of 50 to 75%. On the same count and under the same terms, as for `CC(C)(O)c1ccc(Oc2nc3ccccc3s2)cc1` [Compound 177, 2-[4-(1,3-benzothiazol-2-yloxy)phenyl]propan-2-ol], the figure is greater than 75%. Molecule `CC(=O)CCc1ccc(OCc2ccc3ccccc3n2)cc1` [Compound 189, 4-{4-[(quinolinyl-2-yl)methoxy]phenyl}butan-2-one] registered an inhibition at 3 µM in test [1] of 70 to 90%. The same measure, in the same setting: as for `CCC(O)CCc1ccc(Oc2nc3ccccc3s2)c(OC)c1` (centres unmarked) [Compound 196, 1-[4-(1,3-benzothiazol-2-yloxy)-3-methoxyphenyl]pentan-3-ol], the figure is greater than 90%.
